Here are results for eleven compounds from PubChem BioAssay (NCI).

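Five compound concentrations were applied to cells in 96-well plates for 48 hours; endpoints were derived by simple linear interpolation of the resulting dose-response curve. GI50: concentration for 50% inhibition of growth. The concentration for full growth arrest is given as TGI.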

Holding throughout (assay): inhibition of tumour cell growth, NCI panel, 48 h
In assay [1] the test system is HCC-2998 colon.
Assay [2] relates to PC-3 prostate.
In assay [3] the test system is NCI-H522 lung.
The subject of assay [4] is A498 renal.
The subject of assay [5] is NCI-H23 lung.
In assay [6] the test system is COLO 205 colon.
Assay [7] concerns OVCAR-4 ovarian.
Assay [8] deals with OVCAR-5 ovarian.
For assay [9], the system named is ACHN renal.
Assay [10] has as its system NCI-H226 lung.

In the case of `CCc1cc(O)c(Cl)c(C)c1Cl`, the TGI in assay [1] is 32.7 µM; in assay [2], 40.2 µM; in assay [3] it was 37.6 µM; in [4], 28.2 µM; in assay [5], 36.9 µM; in assay [6] it was 41.4 µM. Moreover, the values for the TGI in assay [7], in assay [8] and in assay [9] were 28.5 µM, 52.2 µM and 31.5 µM, respectively.
As to `NC(C(=O)[O-])C(=O)[O-].NC1CCCCC1N.[Pt+4]`, the GI50 in [2] was 4.67 µM; in assay [4], 11.6 µM; in [5], 13.9 µM; in assay [6], 2.84 µM; in assay [7], 11.3 µM; in assay [8], 2.64 µM. In addition, the GI50 in assay [9] is 11.2 µM. Further, the TGI in [2], in assay [4], in assay [5], in assay [6], in assay [7] and in [8] was > 100 µM each time. Besides, the TGI in [9] was > 100 µM.
Turning to `COc1ccc(-c2cncn2-c2ccc(OC)cc2)cc1`, the GI50 is 16.7 µM in assay [1]; 30 µM in assay [2]; 13.6 µM in assay [3]; 22.5 µM in assay [10]; 16.3 µM in assay [4]; 19.1 µM in [5]. Moreover, the GI50 is 28.9 µM in assay [7], 25.2 µM in assay [8] and 21.3 µM in [9]. Also, the TGI was 32.2 µM in assay [1]; > 100 µM in [2]; 38.3 µM in [3]; 98.3 µM in assay [10]; 34.3 µM in assay [4]; 48.3 µM in assay [5]. Moreover, the TGI in [7] was > 100 µM; in [8] it was 82.7 µM; in assay [9], 60.4 µM.
On to `CCCCCCCCCCCC[n+]1ccc(CCCCCCCCC)cc1`, for which the GI50 was 0.597 µM in [2], 0.695 µM in assay [3], 1.02 µM in assay [4] and 0.39 µM in assay [5]. Further, the TGI is 1.93 µM in assay [2], 2.19 µM in assay [3], 2.37 µM in assay [4] and 1.79 µM in assay [5].
Consider `CCCCn1cnc2c(SC)ncnc21`, for which the TGI in [1], in [2], in [3], in assay [4], in [5] and in assay [6] was > 100 µM throughout. Besides, the TGI in [7], in assay [8] and in assay [9] was > 100 µM throughout.
As for `CN(C)CCOc1ccc2c(c1)C/C(=C/c1ncc([N+](=O)[O-])n1C)C2=O`, the TGI in [2] was found to be 18.3 µM; in assay [3], 3.02 µM; in assay [10], 4.52 µM; in [4], 5.54 µM; in assay [5] it was 4.94 µM; in assay [6], 3.33 µM. Moreover, the TGI in assay [7] turned out to be 5.84 µM; in assay [8] it was 14.8 µM; in assay [9] it was 4.71 µM.
As for `COC(=O)CNC(=O)[C@@H](OC)[C@@H]1Cc2cc3cc(OC4CC(OC5CC(O)C(O)C(C)O5)C(O)C(C)O4)c(C)c(O)c3c(O)c2C(=O)[C@H]1OC1CC(OC2CC(OC3CC(C)(O)C(O)C(C)O3)C(O)C(C)O2)C(O)C(C)O1` (stereo not given in full), the GI50 in assay [1] was 0.207 µM; in assay [2], 0.234 µM; in [3] it was 0.0921 µM; in assay [10], 0.11 µM; in [5] it was 0.15 µM; in assay [6], 0.148 µM. For the same compound, the values for the GI50 in assay [7], in [8] and in assay [9] were 0.305 µM, 0.184 µM and 0.19 µM, respectively. Also, the TGI in [1] is 1.7 µM; in [2], > 50 µM; in assay [3], 0.372 µM; in assay [10], 0.414 µM; in assay [5], > 50 µM; in [6], 1.18 µM. For the same compound, the TGI in assay [7] is 5.4 µM; in assay [8], > 50 µM; in assay [9], 6.94 µM.
Turning to `Fc1ccc2[nH]c3c(NCCCN4CCOCC4)ncnc3c2c1`, the GI50 in assay [1] is 61.4 µM; in [2] it was 65.7 µM; in [10], 63.3 µM; in [4], 28.1 µM; in [5], 51.4 µM; in assay [6], 20.7 µM. In addition, the GI50 in assay [7] was 65.8 µM; in assay [8], 50.5 µM; in assay [9] it was 47.5 µM. Further, the TGI in assay [1] is > 100 µM; in [2], > 100 µM; in assay [10] it was > 100 µM; in assay [4] it was > 100 µM; in [5], > 100 µM; in assay [6] it was 42.4 µM. In addition, the TGI in assay [7], in assay [8] and in assay [9] was > 100 µM in each case.
For the compound `CC(C)NC(=O)OCCS(=O)c1c(Cl)c(Cl)nn1C` (stereo not given), the TGI in assay [2] was > 100 µM; in assay [3], 41.1 µM; in [10], > 100 µM; in assay [4], > 100 µM; in [5] it was > 100 µM; in assay [6] it was 44 µM. For the same compound, the TGI in [7], in assay [8] and in [9] was > 100 µM in each case.
Turning to `COc1ccc(NC(=O)c2cc(OC)c(OC)c(OC)c2)cc1`, the TGI in assay [1] was > 100 µM; in assay [3], > 87.4 µM; in [10] it was > 100 µM; in assay [4], > 100 µM; in assay [5], > 91.9 µM; in assay [6] it was > 71.9 µM. Besides, the TGI in [7], in assay [8] and in assay [9] was > 100 µM throughout.
Consider `N#C/C(=C\c1cccc(O)c1)C(N)=O`, for which the TGI in assay [1], in assay [3], in assay [10], in assay [4], in [5] and in [6] was > 100 µM throughout. In addition, the TGI in [7], in assay [8] and in [9] was > 100 µM throughout.
